The values below come from patent publication EP0911328B1, “SUBSTITUTED AMINOCYCLOALKYLPYRROLIDINE DERIVATIVES” (DAIICHI PHARMACEUTICAL CO., LTD., priority 1995, dated 1997).

SMILES strings stand for the structures. In brackets after ≈: the same amount, converted by molar mass. Read-outs that look alike come from different tables or passages of the source.

Common to all, as to experiment: Antibacterial activity (MIC), standard method of Japan Society of Chemotherapy
Common to all, as to type: cell-based

One assay deals with Ps. aeruginosa, 32121. The settings on record: Pseudomonas aeruginosa, strain Ps. aeruginosa, read-out: minimum inhibitory concentration (MIC). As for the experimental part:
(§1) Examples of the present invention are given below by way of illustration and not by way of limitation. In this connection, antibacterial activity of each compound of interest was measured in accordance with the standard method designated by Japan Society of Chemotherapy. The results are shown in Tables 1 to 3 as minimum inhibitory concentration (MIC, µg/ml).

In another assay the test system is E. coli, NIHJ. The settings on record: Escherichia coli, read-out: minimum inhibitory concentration (MIC). As for the experimental part: as §1
The subject of a further assay is Ps. aeruginosa, 32104. The settings on record: Pseudomonas aeruginosa, strain Ps. aeruginosa, read-out: minimum inhibitory concentration (MIC). As for the experimental part: as §1
The subject of the next assay is Str. pyogenes, G-36. The settings on record: Streptococcus pyogenes. As to the method:
as §1

The subject of the next assay is S. epidermidis, 56500. As to the method: as §1
The subject of another assay is S. aureus, 870307. The settings on record: Staphylococcus aureus, strain S. aureus, read-out: minimum inhibitory concentration (MIC). As to the method: as §1
The next assay deals with Pr. mirabilis, IFO-3849. The settings on record: Proteus mirabilis, IFO3849, strain Pr. mirabilis, read-out: minimum inhibitory concentration (MIC). As to the method:
as §1

Assay [1] concerns Str. faecalis, ATCC-19433. The settings on record: Enterococcus faecalis, ATCC19433, strain Str. faecalis, read-out: minimum inhibitory concentration (MIC). As to the method: as §1
A further assay has as its system Ser. marcescens, 10100. The settings on record: Serratia marcescens, strain Ser. marcescens, read-out: minimum inhibitory concentration (MIC). As for the experimental part: as §1
Assay [2] deals with Ps. maltophilia, IID-1275. The settings on record: Stenotrophomonas maltophilia, IID1275, strain Ps. maltophilia, read-out: minimum inhibitory concentration (MIC). As to the method: as §1
Another assay concerns S. aureus, 209P. The settings on record: Staphylococcus aureus, strain S. aureus, read-out: minimum inhibitory concentration (MIC). As to the method:
as §1

For a further assay, the system named is S. flexneli, 2A 5503. The settings on record: strain S. flexneli, read-out: minimum inhibitory concentration (MIC). As for the experimental part:
as §1

A further assay deals with Pr. vulgaris, 08601. As for the experimental part: as §1
The mark [3] stands for this setting: Staphylococcus epidermidis, 56500, read-out: minimum inhibitory concentration (MIC).
The mark [4] stands for this setting: Proteus vulgaris, strain Pr. vulgaris, 08601, read-out: minimum inhibitory concentration (MIC).
The mark [5] stands for this setting: G36, strain Str. pyogenes, G-36, read-out: minimum inhibitory concentration (MIC).
[6] abbreviates: Staphylococcus epidermidis, strain S. epidermidis, 56500, read-out: minimum inhibitory concentration (MIC).

Regarding `C[C@H]1COc2c(N3C[C@H](F)[C@@H](C4(N)CC4)C3)c(F)cc3c(=O)c(C(=O)O)cn1c23` [compound 6], the MIC with Ps. aeruginosa, 32121 came to 0.2 µg/mL (≈ 0.493 µM); in the assay on E. coli, NIHJ (strain E. coli, NIHJ) it was 0.013 µg/mL (≈ 0.0321 µM); in the assay on Ps. aeruginosa, 32104 it was 0.78 µg/mL (≈ 1.92 µM); in the assay on Str. pyogenes, G-36 (G36, read-out: minimum inhibitory concentration (MIC)), 0.025 µg/mL (≈ 0.0617 µM); in the assay on S. epidermidis, 56500 (setting [3]), 0.025 µg/mL (≈ 0.0617 µM); with S. aureus, 870307, 0.39 µg/mL (≈ 0.962 µM). In addition, the MIC is 0.2 µg/mL (≈ 0.493 µM) in the assay with Pr. mirabilis, IFO-3849; 0.1 µg/mL (≈ 0.247 µM) in [1]; 0.1 µg/mL (≈ 0.247 µM) with Ser. marcescens, 10100; 0.39 µg/mL (≈ 0.962 µM) in assay [2]; 0.006 µg/mL (≈ 0.0148 µM) in the assay on S. aureus, 209P; 0.025 µg/mL (≈ 0.0617 µM) in the assay with S. flexneli, 2A 5503. Further, in the assay with Pr. vulgaris, 08601 (setting [4]), the MIC was found to be 0.05 µg/mL (≈ 0.123 µM).

As for `C[C@H]1COc2c(N3C[C@H](C4(N)CC4)C(F)(F)C3)c(F)cc3c(=O)c(C(=O)O)cn1c23` [compound 8], the MIC in the assay with Ps. aeruginosa, 32121 came out at 0.39 µg/mL (≈ 0.921 µM); in the assay with E. coli, NIHJ (strain E. coli, NIHJ), 0.025 µg/mL (≈ 0.059 µM); in the assay with Ps. aeruginosa, 32104, 1.56 µg/mL (≈ 3.68 µM); with Str. pyogenes, G-36 (setting [5]), 0.1 µg/mL (≈ 0.236 µM); with S. epidermidis, 56500 (setting [6]) it was 0.05 µg/mL (≈ 0.118 µM); in the assay with S. aureus, 870307, 0.78 µg/mL (≈ 1.84 µM). Also, the MIC in the assay with Pr. mirabilis, IFO-3849 stood at 0.78 µg/mL (≈ 1.84 µM); in assay [1], 0.2 µg/mL (≈ 0.472 µM); with Ser. marcescens, 10100 it was 0.39 µg/mL (≈ 0.921 µM); in assay [2], 0.39 µg/mL (≈ 0.921 µM); in the assay on S. aureus, 209P, 0.025 µg/mL (≈ 0.059 µM); in the assay on S. flexneli, 2A 5503, 0.05 µg/mL (≈ 0.118 µM). Besides, in the assay with Pr. vulgaris, 08601 (setting [4]), the MIC worked out at 0.1 µg/mL (≈ 0.236 µM).

With `COc1c(N2C[C@@H](F)[C@@H](C3(N)CC3)C2)c(F)cc2c(=O)c(C(=O)O)cn([C@@H]3C[C@@H]3F)c12` [compound 12], the MIC in the assay on Ps. aeruginosa, 32121 was 0.1 µg/mL (≈ 0.229 µM); in the assay on E. coli, NIHJ (strain E. coli, NIHJ), no more than 0.003 µg/mL; in the assay on Ps. aeruginosa, 32104, 0.39 µg/mL (≈ 0.892 µM); with Str. pyogenes, G-36 (setting [5]), 0.006 µg/mL (≈ 0.0137 µM); with S. epidermidis, 56500 (setting [3]), 0.013 µg/mL (≈ 0.0297 µM); in the assay with S. aureus, 870307, 0.025 µg/mL (≈ 0.0572 µM). For the same compound, the MIC in the assay with Pr. mirabilis, IFO-3849 was 0.05 µg/mL (≈ 0.114 µM); in assay [1] it was 0.025 µg/mL (≈ 0.0572 µM); in the assay with Ser. marcescens, 10100, 0.1 µg/mL (≈ 0.229 µM); in assay [2], 0.2 µg/mL (≈ 0.457 µM); with S. aureus, 209P, no more than 0.003 µg/mL; in the assay on S. flexneli, 2A 5503, 0.013 µg/mL (≈ 0.0297 µM). Further, the MIC in the assay with Pr. vulgaris, 08601 (Proteus vulgaris, 08601, read-out: minimum inhibitory concentration (MIC)) came out at 0.013 µg/mL (≈ 0.0297 µM).

In the case of `Cc1c(N2C[C@H](C3(N)CC3)C(F)(F)C2)c(F)c(N)c2c(=O)c(C(=O)O)cn([C@@H]3C[C@@H]3F)c12` [compound 7], the MIC in the assay with Ps. aeruginosa, 32121 was 0.05 µg/mL (≈ 0.11 µM); in the assay with E. coli, NIHJ (strain E. coli, NIHJ), no more than 0.003 µg/mL; in the assay on Ps. aeruginosa, 32104, 0.1 µg/mL (≈ 0.22 µM); in the assay on Str. pyogenes, G-36 (setting [5]), no more than 0.003 µg/mL; in the assay on S. epidermidis, 56500 (setting [6]), no more than 0.003 µg/mL; with S. aureus, 870307 it was 0.013 µg/mL (≈ 0.0286 µM). Further, the MIC was 0.025 µg/mL (≈ 0.055 µM) in the assay with Pr. mirabilis, IFO-3849; 0.013 µg/mL (≈ 0.0286 µM) in [1]; 0.05 µg/mL (≈ 0.11 µM) in the assay on Ser. marcescens, 10100; 0.05 µg/mL (≈ 0.11 µM) in [2]; no more than 0.003 µg/mL in the assay with S. aureus, 209P; no more than 0.003 µg/mL in the assay with S. flexneli, 2A 5503. Also, the MIC in the assay on Pr. vulgaris, 08601 (setting [4]) came out at 0.05 µg/mL (≈ 0.11 µM).

For `Cc1c(N2C[C@H](F)[C@@H](C3(N)CC3)C2)c(F)c(N)c2c(=O)c(C(=O)O)cn([C@@H]3C[C@@H]3F)c12` [compound 5], the MIC is 0.05 µg/mL (≈ 0.115 µM) in the assay on Ps. aeruginosa, 32121; no more than 0.003 µg/mL with E. coli, NIHJ (strain E. coli, NIHJ); 0.1 µg/mL (≈ 0.229 µM) in the assay with Ps. aeruginosa, 32104; no more than 0.003 µg/mL in the assay on Str. pyogenes, G-36 (setting [5]); 0.006 µg/mL (≈ 0.0137 µM) in the assay with S. aureus, 870307; 0.025 µg/mL (≈ 0.0573 µM) in the assay on Pr. mirabilis, IFO-3849. The MIC in [1] is 0.013 µg/mL (≈ 0.0298 µM); with Ser. marcescens, 10100, 0.05 µg/mL (≈ 0.115 µM); in assay [2] it was 0.05 µg/mL (≈ 0.115 µM); with S. aureus, 209P, no more than 0.003 µg/mL; with S. flexneli, 2A 5503, no more than 0.003 µg/mL; in the assay with Pr. vulgaris, 08601 (setting [4]) it was 0.013 µg/mL (≈ 0.0298 µM).

For the compound `CO[C@H]1CN(c2c(F)c(N)c3c(=O)c(C(=O)O)cn([C@@H]4C[C@@H]4F)c3c2C)C[C@@H]1C1(N)CC1` [compound 4], the MIC with Ps. aeruginosa, 32121 stood at 0.39 µg/mL (≈ 0.87 µM); with E. coli, NIHJ it was 0.013 µg/mL (≈ 0.029 µM); in the assay on Ps. aeruginosa, 32104, 0.78 µg/mL (≈ 1.74 µM); in the assay on Str. pyogenes, G-36 (setting [5]), 0.025 µg/mL (≈ 0.0557 µM); in the assay with S. epidermidis, 56500 (setting [3]), 0.013 µg/mL (≈ 0.029 µM); in the assay with S. aureus, 870307, 0.1 µg/mL (≈ 0.223 µM). Also, the MIC in the assay with Pr. mirabilis, IFO-3849 was 0.2 µg/mL (≈ 0.446 µM); in assay [1], 0.1 µg/mL (≈ 0.223 µM); with Ser. marcescens, 10100, 0.2 µg/mL (≈ 0.446 µM); in assay [2] it was 0.2 µg/mL (≈ 0.446 µM); in the assay with S. aureus, 209P, no more than 0.003 µg/mL; with S. flexneli, 2A 5503, 0.013 µg/mL (≈ 0.029 µM). In addition, the MIC in the assay with Pr. vulgaris, 08601 (setting [4]) was found to be 0.1 µg/mL (≈ 0.223 µM).
